In patent US10144742B2 (Millennium Pharmaceuticals, Inc., priority 2014, dated 2018):
Where two headings read alike, the source gives them in different places.

Columns and labels:
PC3 cells = test: PC3 growth inhibition (Cell-titer glo, 72 hours); type: cell-based; conditions: Homo sapiens, PC-3, PC3 cells, 72 hours, Cell-titer glo, read-out: Percent Inhibition (PC3 growth inhibition); for inhibition at 1 µM: compound concentration 1 μM; for inhibition at 1.667 µM: compound concentration 1.667 μM
In short: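 Compounds in AIM serum-free medium were applied for 72 h at 37 °C, 5% CO2 to PC3 cells plated overnight from RPMI1640 culture. Luminescence after 10 min CellTiter-Glo, normalised to DMSO, gave % viability at 1 μM or 1.667 μM, or GI50/LD50.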

hNAMPT protein = hNAMPT protein (Homo sapiens (Human), UniProt P43490); test: NAMPT enzyme assay (TR-FRET/HTRF, BodiPY ligand, anti 6His-Tb); type: binding; conditions: for IC50: NAMPT IC50 range class, read-out: IC50; for inhibition at 1 µM: read-out: Percent Inhibition
In short: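 Compound or DMSO was incubated for 1 h at room temperature, protected from light, with BodiPY ligand and hNAMPT labelled by terbium anti-6His antibody. The 520 nm to 486 nm emission ratio after 320 nm excitation gave inhibition versus vehicle, from which concentration-response curves yielded IC50.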

Sequence of hNAMPT protein (P43490 whole entry): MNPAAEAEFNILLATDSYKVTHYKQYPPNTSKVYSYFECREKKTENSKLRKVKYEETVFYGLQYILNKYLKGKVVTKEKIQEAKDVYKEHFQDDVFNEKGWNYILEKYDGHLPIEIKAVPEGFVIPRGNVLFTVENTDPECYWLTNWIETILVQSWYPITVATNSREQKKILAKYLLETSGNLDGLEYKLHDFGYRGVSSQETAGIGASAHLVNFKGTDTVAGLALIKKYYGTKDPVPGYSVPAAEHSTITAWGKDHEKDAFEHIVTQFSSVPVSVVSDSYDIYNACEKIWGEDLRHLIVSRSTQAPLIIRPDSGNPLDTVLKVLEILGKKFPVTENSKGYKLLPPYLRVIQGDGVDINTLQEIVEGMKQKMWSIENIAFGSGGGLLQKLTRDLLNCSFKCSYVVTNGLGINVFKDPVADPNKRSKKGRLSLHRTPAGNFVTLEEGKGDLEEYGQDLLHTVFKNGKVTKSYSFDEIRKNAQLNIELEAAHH

## O=C(NCCc1cn2c(n1)SCC2)c1ccc2nc(-c3ccc(F)cc3)c(-c3ccc(F)cc3)nc2c1 [Compound I-238, N-[2-(2,3-dihydroimidazo[2,1-b][1,3]thiazol-6-yl)ethyl]-2,3-bis(4-fluorophenyl)quinoxaline-6-carboxamide]
PC3 cells
  inhibition at 1 µM: 96%
hNAMPT protein
  IC50: 2000 to 10000 nM
hNAMPT protein; compound concentration 1 μM
  inhibition at 1 µM: 19%

## CC(C)(C)OC(=O)N1CCC(C2CCN(c3nc4ccc(C(=O)NCCn5ccnc5)cc4nc3-c3ccccc3)CC2)CC1 [Compound I-239, tert-Butyl 1′-(6-{[2-(1H-imidazol-1-yl)ethyl]carbamoyl}-3-phenylquinoxalin-2-yl)-4,4′-bipiperidine-1-carboxylate]
PC3 cells
  inhibition at 1 µM: 14%
hNAMPT protein
  IC50: 2000 to 10000 nM
hNAMPT protein; compound concentration 1 μM
  inhibition at 1 µM: 25%

## O=C(NCCCn1ccnc1)c1ccc2nc(C3=CCCCC3)c(-c3ccccc3)nc2c1 [Compound I-240, 2-(cyclohex-1-en-1-yl)-N-[3-(1H-imidazol-1-yl)propyl]-3-phenylquinoxaline-6-carboxamide]
PC3 cells
  inhibition at 1 µM: -8%
hNAMPT protein
  IC50: 100 to 500 nM
hNAMPT protein; compound concentration 1 μM
  inhibition at 1 µM: 83%

## COc1ccc(-c2nc3cc(C(=O)NCCCn4ccnc4)ccc3nc2-c2ccccc2)cc1 [Compound I-241, N-[3-(1H-imidazol-1-yl)propyl]-3-(4-methoxyphenyl)-2-phenylquinoxaline-6-carboxamide]
PC3 cells
  inhibition at 1 µM: 1%
hNAMPT protein
  IC50: 500 to 1000 nM
hNAMPT protein; compound concentration 1 μM
  inhibition at 1 µM: 57%

## O=C(NCCCn1ccnc1)c1ccc2nc(-c3cncnc3)c(-c3ccccc3)nc2c1 [Compound I-242, N-[3-(1H-imidazol-1-yl)propyl]-3-phenyl-2-(pyrimidin-5-yl)quinoxaline-6-carboxamide]
PC3 cells
  inhibition at 1 µM: -7%
hNAMPT protein
  IC50: 1000 to 2000 nM
hNAMPT protein; compound concentration 1 μM
  inhibition at 1 µM: 45%

## O=C(NCCCn1ccnc1)c1ccc2nc(N3CCC4(COC4)C3)c(-c3ccccc3)nc2c1 [Compound I-243, N-[3-(1H-imidazol-1-yl)propyl]-2-(2-oxa-6-azaspiro[3.4]oct-6-yl)-3-phenylquinoxaline-6-carboxamide]
PC3 cells
  inhibition at 1 µM: -6%
hNAMPT protein
  IC50: 500 to 1000 nM
hNAMPT protein; compound concentration 1 μM
  inhibition at 1 µM: 62%

## O=C(c1ccc2nc(-c3ccc(F)cc3)c(-c3ccc(F)cc3)nc2c1)N1CCc2cn[nH]c2C1 [Compound I-244, [2,3-bis(4-fluorophenyl)quinoxalin-6-yl](1,4,5,7-tetrahydro-6H-pyrazolo[3,4-c]pyridin-6-yl)methanone]
PC3 cells
  inhibition at 1 µM: 96%
hNAMPT protein
  IC50: 2000 to 10000 nM
hNAMPT protein; compound concentration 1 μM
  inhibition at 1 µM: 33%

## COc1cc(OC)cc(-c2nc3cc(C(=O)NCCCn4ccnc4)ccc3nc2-c2ccccc2)c1 [Compound I-245, 3-(3,5-dimethoxyphenyl)-N-[3-(1H-imidazol-1-yl)propyl]-2-phenylquinoxaline-6-carboxamide]
PC3 cells
  inhibition at 1 µM: -8%
hNAMPT protein
  IC50: 500 to 1000 nM
hNAMPT protein; compound concentration 1 μM
  inhibition at 1 µM: 62%

## O=C(NCCCn1ccnc1)c1ccc2nc(-c3cccs3)c(-c3ccccc3)nc2c1 [Compound I-247, N-[3-(1H-imidazol-1-yl)propyl]-3-phenyl-2-(2-thienyl)quinoxaline-6-carboxamide]
PC3 cells
  inhibition at 1 µM: -5%
hNAMPT protein
  IC50: 500 to 1000 nM
hNAMPT protein; compound concentration 1 μM
  inhibition at 1 µM: 58%

## CC(=O)Nc1cccc(-c2nc3cc(C(=O)NCCCn4ccnc4)ccc3nc2-c2ccccc2)c1 [Compound I-248, 3-(3-acetamidophenyl)-N-[3-(1H-imidazol-1-yl)propyl]-2-phenylquinoxaline-6-carboxamide]
PC3 cells
  inhibition at 1 µM: 2%
hNAMPT protein
  IC50: 2000 to 10000 nM
hNAMPT protein; compound concentration 1 μM
  inhibition at 1 µM: 29%

## O=C(NCCCn1ccnc1)c1ccc2nc(N3CCN4C(=O)CCC4C3)c(-c3ccccc3)nc2c1 (stereo not drawn) [Compound I-250, N-[3-(1H-imidazol-1-yl)propyl]-2-(6-oxohexahydropyrrolo[1,2-a]pyrazin-2(1H)-yl)-3-phenylquinoxaline-6-carboxamide]
PC3 cells
  inhibition at 1 µM: -6%
hNAMPT protein
  IC50: 100 to 500 nM
hNAMPT protein; compound concentration 1 μM
  inhibition at 1 µM: 86%

## O=C(NCCCn1ccnc1)c1ccc2nc(-c3ccccc3)c(-c3ccncc3)nc2c1 [Compound I-251, N-[3-(1H-imidazol-1-yl)propyl]-2-phenyl-3-(pyridin-4-yl)quinoxaline-6-carboxamide]
PC3 cells
  inhibition at 1 µM: 1%
hNAMPT protein
  IC50: 100 to 500 nM
hNAMPT protein; compound concentration 1 μM
  inhibition at 1 µM: 65%

## O=C(NCCCn1ccnc1)c1ccc2nc(-c3ccccc3)c(-c3ccc4c(c3)CCO4)nc2c1 [Compound I-252, 3-(2,3-dihydro-1-benzofuran-5-yl)-N-[3-(1H-imidazol-1-yl)propyl]-2-phenylquinoxaline-6-carboxamide]
PC3 cells
  inhibition at 1 µM: 2%
hNAMPT protein
  IC50: 500 to 1000 nM
hNAMPT protein; compound concentration 1 μM
  inhibition at 1 µM: 53%

## CC(C)Oc1nc2ccc(C(=O)NCCCc3ncc[nH]3)cc2nc1-c1ccc(F)cc1 [Compound I-253, 3-(4-Fluorophenyl)-N-[3-(1H-imidazol-2-yl)propyl]-2-isopropoxyquinoxaline-6-carboxamide]
PC3 cells
  inhibition at 1.667 µM: 2%
hNAMPT protein
  IC50: < 100 nM
  inhibition at 1 µM: 93%

## CC(=O)Nc1ccc(-c2nc3ccc(C(=O)NCCCn4ccnc4)cc3nc2-c2ccccc2)cc1 [Compound I-254, 2-(4-acetamidophenyl)-N-[3-(1H-iniidazol-1-yl)propyl]-3-phenylquinoxaline-6-carboxamide]
PC3 cells
  inhibition at 1 µM: -8%
hNAMPT protein
  IC50: 100 to 500 nM
hNAMPT protein; compound concentration 1 μM
  inhibition at 1 µM: 84%

## O=C(NCCCc1ncc[nH]1)c1ccc2nc(N3CCC(N4CCOCC4)CC3)c(-c3ccc(Cl)cc3)nc2c1 [Compound I-255, 3-(4-chlorophenyl)-N-[3-(1H-imidazol-2-yl)propyl]-2-[4-(morpholin-4-yl)piperidin-1-yl]quinoxaline-6-carboxamide]
PC3 cells
  inhibition at 1.667 µM: 2%
hNAMPT protein
  IC50: < 100 nM
hNAMPT protein; compound concentration 1 μM
  inhibition at 1 µM: > 99%

## O=C(NCCCc1ncc[nH]1)c1ccc2nc(N3CCSCC3)c(-c3ccc(F)cc3)nc2c1 [Compound I-256, 3-(4-fluorophenyl)-N-[3-(1H-imidazol-2-yl)propyl]-2-(thiomorpholin-4-yl)quinoxaline-6-carboxamide]
PC3 cells
  inhibition at 1.667 µM: 2%
hNAMPT protein
  IC50: < 100 nM
hNAMPT protein; compound concentration 1 μM
  inhibition at 1 µM: 97%

## O=C(NCCCn1ccnc1)c1ccc2nc(-c3ccccc3Cl)c(-c3ccccc3)nc2c1 [Compound I-257, 2-(2-chlorophenyl)-N-[3-(1H-imidazol-1-yl)propyl]-3-phenylquinoxaline-6-carboxamide]
PC3 cells
  inhibition at 1 µM: -8%
hNAMPT protein
  IC50: 100 to 500 nM
hNAMPT protein; compound concentration 1 μM
  inhibition at 1 µM: 77%

## O=C(NCCCn1ccnc1)c1ccc2nc(-c3ccc4nccn4c3)c(-c3ccccc3)nc2c1 [Compound I-258, N-[3-(1H-imidazol-1-yl)propyl]-2-(imidazo[1,2-a]pyridin-6-yl)-3-phenylquinoxaline-6-carboxamide]
PC3 cells
  inhibition at 1 µM: -8%
hNAMPT protein
  IC50: 100 to 500 nM
hNAMPT protein; compound concentration 1 μM
  inhibition at 1 µM: 67%

## CN1CCN(Cc2nc3ccc(C(=O)NCCCn4ccnc4)cc3nc2-c2ccccc2)CC1 [Compound I-259, N-[3-(1H-imidazol-1-yl)propyl]-2-[(4-methylpiperazin-1-yl)methyl]-3-phenylquinoxaline-6-carboxamide]
PC3 cells
  inhibition at 1 µM: -7%
hNAMPT protein
  IC50: 1000 to 2000 nM
hNAMPT protein; compound concentration 1 μM
  inhibition at 1 µM: 44%

## O=C(NCCCn1ccnc1)c1ccc2nc(-c3ccccc3)c(-c3ccccc3)nc2c1 [Compound I-261, N-[3-(1H-imidazol-1-yl)propyl]-2,3-diphenylquinoxaline-6-carboxamide]
PC3 cells
  inhibition at 1 µM: -1%
hNAMPT protein
  IC50: 100 to 500 nM
hNAMPT protein; compound concentration 1 μM
  inhibition at 1 µM: 67%
